Test results published in patent publication US7521540B2, “CYR61 compositions and methods” (Munin Corporation, priority 1996, dated 2009).

Experiments:
[1] = system: Human Microvascular Endothelial Cells; assay: In vitro migration assay for angiogenesis inhibitors; assay type: cell-based; conditions: bFGF 10 ng/ml; Cyr61; IGF-II
Method: As in the preceding Example, human microvascular endothelial cells (Clonetics) were used. In one series of assays, several carbohydrates and carbohydrate derivatives were analyzed. These compounds included 10 mM mannose, 10 mM mannose-6-phosphate, and 10 mM galactose. […] Cyr61 plus galactose induced the migration of approximately 74 cells per set of three high-powered fields. […] The angiogenic activity of basic FGF (10 ng/ml) was also tested, as described above, with and without mannose-6-phosphate. In the presence of 10 mM mannose-6-phosphate, bFGF induced 51 cells per set of three high-powered fields to migrate; in its absence, bFGF induced the migration of approximately 52 cells. […] The effect of mannose-6-phosphate on IGF II activity was anticipated because mannose-6-phosphate is known to compete with IGF II for their common receptor (the IGF II receptor). […] Moreover, because there is an essentially perfect correlation between the in vitro migration assay and the in vivo angiogenesis assay, described below, mannose-6-phosphate has been identified as an inhibitor of angiogenesis based on the results of the assay disclosed herein. Accordingly, the invention contemplates a method of inhibiting angiogenesis comprising the step of administering an inhibitor the angiogenic activity of Cyr61 such as mannose-6-phosphate. Assays such as that described above may also be used to screen for other inhibitors of angiogenesis which may be useful in the treatment of diseases associated with angiogenesis such as cancer, and diseases of the eye which are accompanied by neovascularization.

HUVE cells = assay: Thymidine incorporation (mitogen potentiation), HUVE cells; assay type: cell-based, human
Method: Human umbilical vein endothelial cells were plated essentially as described above for 3T3 cells and exposed to a constant amount of murine Cyr61; controls received no Cyr61. Different plates were then exposed to different levels of bFGF, comprising a series of bFGF concentrations ranging from 0-10 ng/ml. […] At 1 ng/ml bFGF, however, HUVE cells increased their thymidine incorporation in the presence of bFGF to 6×10^2 cpm; in the presence of 1 ng/ml bFGF and murine Cyr61, HUVE cells incorporated 1.3×10^3 cpm. At 10 ng/ml bFGF, cells exposed to bFGF incorporated about 1.8×10^3 cpm thymidine; cells receiving 10 ng/ml bFGF and Cyr61 incorporated approximately 6.1×10^3 cpm.
The capacity of murine Cyr61 to potentiate the mitogenic activity of bFGF was verified by a thymidine incorporation assay involving HUVE cells and various combinations of bFGF, Cyr61, and anti-Cyr61 antibodies. Cells were plated and grown as described above. The following combinations of supplements (final plate concentrations noted parenthetically) were then pre-incubated for 1 hour before addition to individual plates: 1) pre-immune antiserum (3%); 2) bFGF (15 ng/ml) and pre-immune antiserum (3%); 3) pre-immune antiserum (3%) and Cyr61 (4 μg/ml); 4) pre-immune antiserum (3%), Cyr61 (4 μg/ml), and bFGF (15 ng/ml); 5) anti-Cyr61 antiserum (3%); 6) anti-Cyr61 antiserum and bFGF (15 ng/ml); 7) anti-Cyr61 antiserum (3%) and Cyr61 (4 μg/ml); and 8) anti-Cyr61 antiserum (3%), Cyr61 (4 μg/ml), and bFGF (15 ng/ml).
DNA synthesis for HUVE cells and NIH 3T3 fibroblasts was measured by thymidine incorporation as described previously (Kireeva et al., [1996]) with minor modifications. HUVE cells were grown in 24-well plates to a subconfluent state, serum-starved for 24 hours and treated with F12K medium containing 10% fetal bovine serum (FBS), 1 μCi/ml [^3H]-thymidine and 10 ng/ml basic Fibroblast Growth Factor (bFGF) (Gibco-BRL, Inc.) with various concentrations of Cyr61 and Fisp12 as indicated. […] Thymidine incorporation into the trichloroacetic acid-insoluble fraction was determined after 24 hour incubation. […]

Substance: bFGF: Growth factor used as positive control [reference compound]
- migrating cells, chemoattractant without mannose-6-phosphate [1]: approximately 52 cells
- thymidine incorporation, baseline (HUVE cells; 0-0.1 ng/ml bFGF, presence or absence of Cyr61, 72 hours): approximately 4×10^2 cpm
- thymidine incorporation, bFGF alone (HUVE cells; 1 ng/ml bFGF): 6×10^2 cpm
- thymidine incorporation, bFGF alone (HUVE cells; 10 ng/ml bFGF): about 1.8×10^3 cpm
